Data published in patent US20260232774A1, “COMPOSITIONS AND METHODS FOR TREATING INTESTINAL MICROBIOME DYSBIOSIS” (The Regents of the University of Michigan, priority 2023, published 2026).

Test system: GVHD in GF B6 BMT recipients
Conditions: mouse, in vivo
From the text: (A) The details of the experimental design were shown in FIG. 12G to L. Quantification of iron in stool from colon and ileum in Allo B6 and Allo B6 deferasirox at 7 day and 21 day after BMT were shown (Day7, N=2, Day21, Vehicle: N=4, Deferasirox: N=2). (B) The percent of IFNγ+CD4, IFNγ+CD8, and Treg cells in spleen from recipients at day7 after BMT were shown (N=4). (C) The cytokine levels of IFNγ, TNFα, and IL17A in serum from recipients at day7 after BMT were shown (Vehicle: N=3, Deferasirox: N=4). (D to F) GF mice received BMT from BALB/c donor mice. BMT recipients were orally treated with deferasirox (20 mg/kg) and vehicle every day. (D) Hypoxyprobe staining and relative fluorescent intensity in colon from recipients 21 days after BMT (scale bar=50 μm). Three independent experiments were performed. Survival rate (E) and clinical GVHD score (F) of BMT recipients (Syn GF vehicle: N=2, Syn GF deferasirox: N=2, Allo GF vehicle: N=8, Allo GF deferasirox: N=10). The horizontal line in box (C) represents the median with the box bounding the interquartile range. The ends of the whisker lines represent the minimum and maximum values. […]
Because alteration of O2 affects host IECs in addition to the microbiome, we next determined whether restoring intestinal hypoxia by Fe chelation after allo-HSCT mitigated GVHD independent of its impact on dysbiosis. […]

O=C(O)c1ccc(-n2nc(-c3ccccc3O)nc2-c2ccccc2O)cc1 [deferasirox]
survival and GVHD of syngeneic GF mice: survived without GVHD
